The record followed here is ChEMBL document CHEMBL5038633 (J Med Chem, 2022).

Assay [1] is described as follows: Inhibition of mast cell degranulation in Wistar Han rat peritoneal lavage mast cells assessed as inhibition histamine release by measuring lowest concentration at which histamine release observed measured after 30 mins. Type of assay: functional. Conditions: 0.5 h.
Assay [2] concerns the target Sodium channel protein type 9 subunit alpha (Homo sapiens, UniProt Q15858). The assay is described as follows: Inhibition of human Nav1.7 stably expressed in cells with train pulses to -20 mV at 0.1 Hz and holding potential of -95 mV by Qube-automated patch clamp assay. Type of assay: cell-based. (In general: Patch clamp records ionic current or voltage across a cell membrane.)

The target in assay [3] is Sodium channel protein type 4 subunit alpha (Homo sapiens, UniProt P35499). The assay is described as follows: Inhibition of human Nav1.4 stably expressed in cells with train pulses to -20 mV at 0.1 Hz and holding potential of -95 mV by whole-cell Qube-automated patch clamp assay. Type of assay: cell-based.
The target in assay [4] is Sodium channel protein type 8 subunit alpha (Homo sapiens, UniProt Q9UQD0). The assay is described as follows: Inhibition of human Nav1.6 stably expressed in cells with train pulses to -20 mV at 0.1 Hz and holding potential of -85 mV by whole-cell Qube-automated patch clamp assay. Type of assay: cell-based.

Where a SMILES comes first, the peptide text is derived from it. Bridges are numbered along the chain shown (N, C = ends).

Sodium channel protein type 8 subunit alpha, sequence (Q9UQD0 whole entry): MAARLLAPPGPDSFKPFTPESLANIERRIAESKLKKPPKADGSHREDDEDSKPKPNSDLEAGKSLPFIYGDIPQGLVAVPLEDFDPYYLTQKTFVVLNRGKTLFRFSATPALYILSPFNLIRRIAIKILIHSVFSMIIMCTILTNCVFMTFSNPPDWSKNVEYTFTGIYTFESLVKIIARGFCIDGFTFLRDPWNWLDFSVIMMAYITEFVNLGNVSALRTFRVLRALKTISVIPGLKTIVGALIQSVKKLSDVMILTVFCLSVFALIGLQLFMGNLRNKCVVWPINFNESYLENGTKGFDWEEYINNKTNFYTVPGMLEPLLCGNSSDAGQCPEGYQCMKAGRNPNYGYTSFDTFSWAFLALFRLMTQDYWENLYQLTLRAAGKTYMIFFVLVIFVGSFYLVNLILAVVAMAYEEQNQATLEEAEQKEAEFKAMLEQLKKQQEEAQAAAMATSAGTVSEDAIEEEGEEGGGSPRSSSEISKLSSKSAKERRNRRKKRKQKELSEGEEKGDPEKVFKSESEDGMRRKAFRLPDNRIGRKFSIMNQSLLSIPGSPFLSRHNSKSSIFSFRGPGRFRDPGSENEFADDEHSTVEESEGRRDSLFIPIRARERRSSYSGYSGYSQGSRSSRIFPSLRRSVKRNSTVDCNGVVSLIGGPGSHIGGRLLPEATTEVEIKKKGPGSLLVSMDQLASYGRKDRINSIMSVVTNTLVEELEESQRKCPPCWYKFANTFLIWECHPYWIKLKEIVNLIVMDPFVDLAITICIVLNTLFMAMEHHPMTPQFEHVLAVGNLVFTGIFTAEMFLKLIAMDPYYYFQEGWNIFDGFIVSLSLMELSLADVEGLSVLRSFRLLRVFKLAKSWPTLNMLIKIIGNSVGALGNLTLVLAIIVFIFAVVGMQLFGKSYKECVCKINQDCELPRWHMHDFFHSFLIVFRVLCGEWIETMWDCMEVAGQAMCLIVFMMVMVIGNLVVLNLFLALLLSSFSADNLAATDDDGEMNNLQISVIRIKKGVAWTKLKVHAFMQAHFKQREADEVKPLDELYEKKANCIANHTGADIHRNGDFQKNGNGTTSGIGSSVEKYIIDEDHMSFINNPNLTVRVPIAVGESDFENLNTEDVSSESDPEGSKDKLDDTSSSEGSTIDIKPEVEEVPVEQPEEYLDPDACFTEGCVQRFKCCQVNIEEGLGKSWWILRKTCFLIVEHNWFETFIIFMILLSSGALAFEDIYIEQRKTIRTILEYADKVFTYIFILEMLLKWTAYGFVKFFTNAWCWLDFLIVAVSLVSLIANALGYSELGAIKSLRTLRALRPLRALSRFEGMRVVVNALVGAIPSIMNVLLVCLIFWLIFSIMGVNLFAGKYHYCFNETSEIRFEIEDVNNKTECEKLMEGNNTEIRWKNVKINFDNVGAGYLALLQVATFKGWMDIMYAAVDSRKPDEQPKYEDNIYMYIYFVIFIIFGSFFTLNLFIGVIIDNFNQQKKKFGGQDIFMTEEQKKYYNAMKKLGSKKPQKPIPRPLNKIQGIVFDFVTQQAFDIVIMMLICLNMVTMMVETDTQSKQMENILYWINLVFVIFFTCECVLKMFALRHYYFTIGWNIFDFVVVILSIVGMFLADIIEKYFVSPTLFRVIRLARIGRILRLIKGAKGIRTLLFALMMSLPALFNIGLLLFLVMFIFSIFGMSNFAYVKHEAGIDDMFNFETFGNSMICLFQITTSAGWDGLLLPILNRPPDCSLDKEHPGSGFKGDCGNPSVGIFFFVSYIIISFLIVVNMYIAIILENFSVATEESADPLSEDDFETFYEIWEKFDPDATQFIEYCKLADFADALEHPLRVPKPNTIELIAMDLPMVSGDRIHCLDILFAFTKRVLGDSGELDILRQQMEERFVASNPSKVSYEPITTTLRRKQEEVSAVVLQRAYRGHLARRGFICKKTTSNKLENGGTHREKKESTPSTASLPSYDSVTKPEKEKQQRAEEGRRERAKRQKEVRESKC
Sodium channel protein type 9 subunit alpha, sequence (Q15858 whole entry): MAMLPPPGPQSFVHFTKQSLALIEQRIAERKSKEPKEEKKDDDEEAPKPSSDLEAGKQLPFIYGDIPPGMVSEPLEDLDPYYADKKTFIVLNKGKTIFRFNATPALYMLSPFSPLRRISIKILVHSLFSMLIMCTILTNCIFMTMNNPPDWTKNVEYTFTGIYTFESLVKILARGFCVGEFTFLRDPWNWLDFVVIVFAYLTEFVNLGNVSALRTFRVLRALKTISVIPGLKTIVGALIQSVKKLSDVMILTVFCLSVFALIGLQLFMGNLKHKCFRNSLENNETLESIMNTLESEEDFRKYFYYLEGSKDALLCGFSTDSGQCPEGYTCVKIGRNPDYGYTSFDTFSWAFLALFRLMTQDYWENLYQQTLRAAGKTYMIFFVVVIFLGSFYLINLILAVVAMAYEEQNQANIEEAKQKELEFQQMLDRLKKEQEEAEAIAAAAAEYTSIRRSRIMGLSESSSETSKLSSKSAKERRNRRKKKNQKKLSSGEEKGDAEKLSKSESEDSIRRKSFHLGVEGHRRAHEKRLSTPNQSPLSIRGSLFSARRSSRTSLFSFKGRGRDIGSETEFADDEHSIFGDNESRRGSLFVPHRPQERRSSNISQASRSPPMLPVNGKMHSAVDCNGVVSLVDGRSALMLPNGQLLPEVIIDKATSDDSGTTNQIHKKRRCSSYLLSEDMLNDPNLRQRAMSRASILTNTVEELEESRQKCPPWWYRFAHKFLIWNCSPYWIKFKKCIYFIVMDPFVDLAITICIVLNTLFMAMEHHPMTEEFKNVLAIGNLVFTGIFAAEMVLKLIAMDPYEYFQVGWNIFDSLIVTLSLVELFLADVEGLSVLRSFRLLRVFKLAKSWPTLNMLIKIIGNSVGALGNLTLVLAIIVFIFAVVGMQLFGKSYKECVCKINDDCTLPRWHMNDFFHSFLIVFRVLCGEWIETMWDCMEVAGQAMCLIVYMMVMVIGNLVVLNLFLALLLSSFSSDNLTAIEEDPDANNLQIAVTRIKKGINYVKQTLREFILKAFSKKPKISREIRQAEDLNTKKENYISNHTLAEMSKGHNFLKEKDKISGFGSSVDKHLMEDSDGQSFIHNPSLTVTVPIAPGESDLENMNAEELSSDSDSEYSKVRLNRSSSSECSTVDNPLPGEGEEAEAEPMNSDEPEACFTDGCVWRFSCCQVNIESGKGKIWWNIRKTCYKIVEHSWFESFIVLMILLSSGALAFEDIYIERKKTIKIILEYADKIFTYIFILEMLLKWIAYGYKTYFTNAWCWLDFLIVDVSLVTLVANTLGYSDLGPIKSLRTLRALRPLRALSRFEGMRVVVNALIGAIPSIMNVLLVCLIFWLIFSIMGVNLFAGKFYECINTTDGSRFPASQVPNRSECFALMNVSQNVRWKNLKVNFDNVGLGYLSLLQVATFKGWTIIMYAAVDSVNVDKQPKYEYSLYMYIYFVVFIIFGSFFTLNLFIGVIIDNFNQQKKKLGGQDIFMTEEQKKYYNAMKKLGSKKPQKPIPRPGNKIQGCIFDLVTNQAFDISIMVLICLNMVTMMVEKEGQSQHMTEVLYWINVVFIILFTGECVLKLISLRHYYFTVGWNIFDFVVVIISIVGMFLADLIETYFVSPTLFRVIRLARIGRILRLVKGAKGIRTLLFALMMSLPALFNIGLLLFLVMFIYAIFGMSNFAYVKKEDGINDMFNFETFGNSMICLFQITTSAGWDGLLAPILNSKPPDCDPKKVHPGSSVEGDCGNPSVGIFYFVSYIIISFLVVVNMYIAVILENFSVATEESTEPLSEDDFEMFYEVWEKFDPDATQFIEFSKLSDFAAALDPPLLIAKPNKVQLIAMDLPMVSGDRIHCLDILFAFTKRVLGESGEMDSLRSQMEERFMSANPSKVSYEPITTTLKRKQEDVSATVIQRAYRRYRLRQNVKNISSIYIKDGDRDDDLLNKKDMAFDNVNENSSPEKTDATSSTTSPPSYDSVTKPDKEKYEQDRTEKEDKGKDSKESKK

Broadly, the IC50 is the concentration at which inhibition is half-maximal. Consider `CC(=O)N[C@H]1CSSC[C@@H]2NC(=O)[C@@H]3CSSC[C@@H](C(=O)N[C@@H](CCCCN)C(=O)N[C@@H](CCCCN)C(=O)N[C@@H](CCCCN)C(=O)N[C@@H](CC(C)C)C(=O)N[C@@H](Cc4c[nH]c5ccccc45)C(N)=O)NC(=O)[C@H](Cc4c[nH]c5ccccc45)NC(=O)[C@H](CC(C)C)NC(=O)[C@H](CCCNC(=N)N)NC(=O)[C@H](CSSC[C@H](NC(=O)[C@@H]4CCCN4C(=O)[C@H](C)NC(=O)[C@H](CC(C)C)NC(=O)[C@H](Cc4ccccc4)NC(=O)[C@H](CCCCN)NC(=O)[C@H](CCC(N)=O)NC1=O)C(=O)N[C@@H](CC(=O)O)C(=O)N[C@@H](CO)C(=O)N[C@@H](CCC(=O)O)C(=O)N[C@@H](CCCNC(=N)N)C(=O)N[C@@H](CCCCN)C(=O)N3)NC(=O)[C@H](CCC(=O)O)NC(=O)[C@H](CC(C)C)NC(=O)CNC(=O)[C@H](CCC(=O)O)NC2=O` (Ac-CQKFLAPCDSERKCCEGLECRLWCKKKLW-NH2; disulfide 1-15, 8-20, 14-24), for which the LED in assay [1] stood at 3.3 µM. Besides, the results for the IC50 in assay [2], in assay [3] and in assay [4] were 42 nM, more than 17 µM and more than 17 µM, respectively.
For `CC(=O)N[C@H]1CSSC[C@@H]2NC(=O)[C@@H]3CSSC[C@@H](C(=O)N[C@@H](CCCCN)C(=O)N[C@@H](CCCCN)C(=O)N[C@@H](CCCCN)C(=O)N[C@@H](CC(C)C)C(=O)N[C@@H](Cc4c[nH]c5ccccc45)C(N)=O)NC(=O)[C@H](Cc4c[nH]c5ccccc45)NC(=O)[C@H](CC(C)C)NC(=O)[C@H](C(C)C)NC(=O)[C@H](CSSC[C@H](NC(=O)[C@@H]4CCCN4C(=O)[C@H](C)NC(=O)[C@H](CC(C)C)NC(=O)[C@H](Cc4ccccc4)NC(=O)[C@H](CCCCN)NC(=O)[C@H](CCC(N)=O)NC1=O)C(=O)N[C@@H](CC(=O)O)C(=O)N[C@@H](CO)C(=O)N[C@@H](CCC(=O)O)C(=O)N[C@@H](CCCNC(=N)N)C(=O)N[C@@H](CCCCN)C(=O)N3)NC(=O)[C@H](CCC(=O)O)NC(=O)[C@H](CC(C)C)NC(=O)CNC(=O)[C@H](CCC(=O)O)NC2=O` (Ac-CQKFLAPCDSERKCCEGLECVLWCKKKLW-NH2; disulfide 1-15, 8-20, 14-24), the LED in assay [1] stood at 30 µM. The values for the concentration for half-maximal inhibition (IC50) in assay [2], in assay [3] and in assay [4] were 232 nM, more than 17 µM and more than 17 µM, respectively.
As to `CC(=O)N[C@H]1CSSC[C@@H]2NC(=O)[C@@H]3CSSC[C@@H](C(=O)N[C@@H](CCCCN)C(=O)N[C@@H](CCCCN)C(=O)N[C@@H](CCCCN)C(=O)N[C@@H](CC(C)C)C(=O)N[C@@H](Cc4c[nH]c5ccccc45)C(N)=O)NC(=O)[C@H](Cc4c[nH]c5ccccc45)NC(=O)[C@H](CC(C)C)NC(=O)[C@H](CCCNC(=N)N)NC(=O)[C@H](CSSC[C@H](NC(=O)[C@@H]4CCCN4C(=O)[C@H](C)NC(=O)[C@H](CC(C)C)NC(=O)[C@H](Cc4ccccc4)NC(=O)[C@H](CCCCN)NC(=O)[C@H](CCC(N)=O)NC1=O)C(=O)N[C@@H](CC(=O)O)C(=O)N[C@@H](CO)C(=O)N[C@@H](CCC(=O)O)C(=O)N[C@@H](CCCNC(=N)N)C(=O)N[C@@H](CCCCN)C(=O)N3)NC(=O)[C@H](C(C)C)NC(=O)[C@H](CC(C)C)NC(=O)CNC(=O)[C@H](CCC(=O)O)NC2=O` (Ac-CQKFLAPCDSERKCCEGLVCRLWCKKKLW-NH2; disulfide 1-15, 8-20, 14-24), in assay [1], the LED amounted to 3.3 µM. Also, the results for the IC50 in assay [2], in assay [3] and in assay [4] were 20 nM, 1.24 µM and 1.23 µM, respectively.
On to `CC(=O)N[C@H]1CSSC[C@@H]2NC(=O)[C@@H]3CSSC[C@@H](C(=O)N[C@@H](CCCCN)C(=O)N[C@@H](CCCCN)C(=O)N[C@@H](CCCCN)C(=O)N[C@@H](CC(C)C)C(=O)N[C@@H](Cc4c[nH]c5ccccc45)C(N)=O)NC(=O)[C@H](Cc4c[nH]c5ccccc45)NC(=O)[C@H](CC(C)C)NC(=O)[C@H](CCCCN)NC(=O)[C@H](CSSC[C@H](NC(=O)[C@@H]4CCCN4C(=O)[C@H](CCC(=O)O)NC(=O)[C@H](CC(C)C)NC(=O)[C@H](Cc4ccccc4)NC(=O)[C@H](CCCCN)NC(=O)[C@H](CCC(N)=O)NC1=O)C(=O)N[C@@H](CC(=O)O)C(=O)N[C@@H](CCC(=O)O)C(=O)N[C@@H](CCC(=O)O)C(=O)N[C@@H](CCCNC(=N)N)C(=O)N[C@@H](CCCCN)C(=O)N3)NC(=O)[C@H](C(C)C)NC(=O)[C@H](CC(C)C)NC(=O)CNC(=O)[C@H](CCC(=O)O)NC2=O` (Ac-CQKFLEPCDEERKCCEGLVCKLWCKKKLW-NH2; disulfide 1-15, 8-20, 14-24), for which, in assay [1], the LED amounted to 10 µM. Further, the IC50 is 218 nM in assay [2], more than 17 µM in assay [3] and more than 17 µM in assay [4].
As for `CC(=O)N[C@H]1CSSC[C@@H]2NC(=O)[C@@H]3CSSC[C@@H](C(=O)N[C@@H](CCCCN)C(=O)N[C@@H](CCCCN)C(=O)N[C@@H](CCCCN)C(=O)N[C@@H](CC(C)C)C(=O)N[C@@H](Cc4c[nH]c5ccccc45)C(N)=O)NC(=O)[C@H](Cc4c[nH]c5ccccc45)NC(=O)[C@H](CC(C)C)NC(=O)[C@H](CCCNC(=N)N)NC(=O)[C@H](CSSC[C@H](NC(=O)[C@@H]4CCCN4C(=O)[C@H](CCC(=O)O)NC(=O)[C@H](CC(C)C)NC(=O)[C@H](Cc4ccccc4)NC(=O)[C@H](CCCCN)NC(=O)[C@H](CCC(N)=O)NC1=O)C(=O)N[C@@H](CC(=O)O)C(=O)N[C@@H](CO)C(=O)N[C@@H](CCC(=O)O)C(=O)N[C@@H](CCCNC(=N)N)C(=O)N[C@@H](CCCCN)C(=O)N3)NC(=O)[C@H](CCC(=O)O)NC(=O)[C@H](CC(C)C)NC(=O)CNC(=O)[C@H](CCC(=O)O)NC2=O` (Ac-CQKFLEPCDSERKCCEGLECRLWCKKKLW-NH2; disulfide 1-15, 8-20, 14-24), in assay [1], the LED amounted to 10 µM. Moreover, the IC50 in assay [2] was 97 nM; in assay [3], more than 17 µM; in assay [4], more than 17 µM.
`CC(=O)N[C@H]1CSSC[C@@H]2NC(=O)[C@@H]3CSSC[C@@H](C(=O)N[C@@H](CCCCN)C(=O)N[C@@H](CCCCN)C(=O)N[C@@H](CCCCN)C(=O)N[C@@H](CC(C)C)C(=O)N[C@@H](Cc4c[nH]c5ccccc45)C(N)=O)NC(=O)[C@H](Cc4c[nH]c5ccccc45)NC(=O)[C@H](CC(C)C)NC(=O)[C@H](CCCNC(=N)N)NC(=O)[C@H](CSSC[C@H](NC(=O)[C@@H]4CCCN4C(=O)[C@H](CCC(=O)O)NC(=O)[C@H](CC(C)C)NC(=O)[C@H](Cc4ccccc4)NC(=O)[C@H](CCCCN)NC(=O)[C@H](CCC(N)=O)NC1=O)C(=O)N[C@@H](CC(=O)O)C(=O)N[C@@H](CO)C(=O)N[C@@H](CCC(=O)O)C(=O)N[C@@H](CCCNC(=N)N)C(=O)N[C@@H](CCCCN)C(=O)N3)NC(=O)[C@H](C(C)C)NC(=O)[C@H](CC(C)C)NC(=O)CNC(=O)[C@H](CCC(=O)O)NC2=O` (Ac-CQKFLEPCDSERKCCEGLVCRLWCKKKLW-NH2; disulfide 1-15, 8-20, 14-24): the LED in assay [1] came out at 3.3 µM. The 50% inhibitory concentration (IC50) in assay [2] is 43 nM; in assay [3], 4.77 µM; in assay [4] it was 3.94 µM.
